Experimental data as given in ChEMBL document CHEMBL4811281, “Identification of aryl sulfonamides as novel and potent inhibitors of NaV1.5” (Bioorg Med Chem Lett, 2021).
The source made the active and inactive calls. The rule behind the calls is not given here.

Key:
[1] = target: Sodium channel protein type 5 subunit alpha (Homo sapiens, UniProt Q14524); test: Inhibition of human Nav1.5 by automated voltage clamp electrophysiology
[2] = Intrinsic clearance in mouse liver microsomes; assay type: ADME, Microsome; settings: read-out: CLH
[3] = Intrinsic clearance in human liver microsomes; assay type: ADME, Microsome; settings: read-out: CLH
[4] = Inhibition of human Nav1.5 VSD4 R1631A mutant by automated voltage clamp electrophysiology
[5] = Inhibition of human Nav1.5 VSD4 R1628A mutant by automated voltage clamp electrophysiology
[6] = Inhibition of human Nav1.5 VSD4 R1625A mutant by automated voltage clamp electrophysiology
[7] = Inhibition of human Nav1.5 VSD4 R1622A mutant by automated voltage clamp electrophysiology
[8] = target: Sodium channel protein type 5 subunit alpha (Homo sapiens, UniProt Q14524, R814A); test: Inhibition of human Nav1.5 VSD2 R814A mutant by automated voltage clamp electrophysiology
[9] = Inhibition of human Nav1.5 VSD4 R1634A mutant by automated voltage clamp electrophysiology
[10] = species on record: Homo sapiens; test: Selectivity ratio of IC50 for inhibition of human Nav1.5 VSD4 F1759A mutant to IC50 for inhibition of human Nav1.5 by automated voltage clamp electrophysiology
[11] = species on record: Homo sapiens; test: Selectivity ratio of IC50 for human Nav1.2 to IC50 for human Nav1.5
[12] = species on record: Homo sapiens; test: Selectivity ratio of IC50 for inhibition of human Nav1.5 expressed in HEK293 cells assessed as inhibition of peak current to IC50 for inhibition of human Nav1.5 expressed in HEK293 cells assessed as inhibition of late current; assay type: cell-based
[13] = target: Potassium voltage-gated channel subfamily B member 1 (Homo sapiens) (UniProt Q14721); test: Inhibition of Kv2.1 (unknown origin) by voltage clamp method
[14] = target: Voltage-dependent T-type calcium channel subunit alpha-1I (Homo sapiens) (UniProt Q9P0X4); test: Inhibition of Cav3.3 (unknown origin) by voltage clamp assay
[15] = species on record: Homo sapiens; test: Inhibition of Kv4.2/KChIP2.2 (unknown origin) by voltage clamp method
[16] = species on record: Homo sapiens; test: Selectivity ratio of IC50 for human Nav1.1 to IC50 for human Nav1.5
[17] = target: Transient receptor potential cation channel subfamily V member 1 (Homo sapiens) (UniProt Q8NER1); test: Inhibition of TRPV1 (unknown origin) by voltage clamp assay
[18] = target: Potassium/sodium hyperpolarization-activated cyclic nucleotide-gated channel 4 (Homo sapiens) (UniProt Q9Y3Q4); test: Inhibition of HCN4 (unknown origin) by voltage clamp method
[19] = target: Potassium/sodium hyperpolarization-activated cyclic nucleotide-gated channel 2 (Homo sapiens) (UniProt Q9UL51); test: Inhibition of HCN2 (unknown origin) by voltage clamp method
[20] = tested on: iPSC-CM; test: Anti-arrythmic activity in human iPSC-derived cardiomyocytes assessed as maximum diastolic membrane potential at 100 nM in presence of 15 to 30 nM ATX-II by current clamp analysis; assay type: functional, cell-based
[21] = target: Voltage-gated potassium channel KCNC2 (Homo sapiens) (UniProt Q96PR1); test: Inhibition of Kv3.2 (unknown origin) by voltage clamp method
Chain of Voltage-gated potassium channel KCNC2 (Homo sapiens) (Q96PR1 whole entry): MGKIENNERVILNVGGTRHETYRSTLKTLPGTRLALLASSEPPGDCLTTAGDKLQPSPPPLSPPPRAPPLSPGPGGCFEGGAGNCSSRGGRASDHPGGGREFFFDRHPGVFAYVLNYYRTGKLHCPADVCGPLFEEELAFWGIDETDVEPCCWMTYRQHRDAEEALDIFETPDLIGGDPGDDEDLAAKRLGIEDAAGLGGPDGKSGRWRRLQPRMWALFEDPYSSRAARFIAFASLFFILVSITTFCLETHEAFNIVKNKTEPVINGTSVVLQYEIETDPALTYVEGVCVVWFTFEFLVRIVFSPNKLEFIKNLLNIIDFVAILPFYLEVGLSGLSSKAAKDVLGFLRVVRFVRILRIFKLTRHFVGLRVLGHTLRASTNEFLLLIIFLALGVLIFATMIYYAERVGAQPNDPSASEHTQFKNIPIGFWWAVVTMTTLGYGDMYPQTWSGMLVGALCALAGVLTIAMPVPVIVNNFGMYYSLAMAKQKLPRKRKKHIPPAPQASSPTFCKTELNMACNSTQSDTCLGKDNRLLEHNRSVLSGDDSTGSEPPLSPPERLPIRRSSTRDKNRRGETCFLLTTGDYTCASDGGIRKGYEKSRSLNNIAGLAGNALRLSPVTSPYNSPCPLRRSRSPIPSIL

[22] = target: Voltage-dependent N-type calcium channel subunit alpha-1B (Homo sapiens) (UniProt Q00975); test: Inhibition of Cav2.2 (unknown origin) by voltage clamp assay
[23] = species on record: Homo sapiens; test: Inhibition of GABA channel (unknown origin) by voltage clamp assay
[24] = target: 5-hydroxytryptamine receptor 3A (Homo sapiens) (UniProt P46098); test: Inhibition of 5HT3A channel (unknown origin) by voltage clamp assay
[25] = species on record: Homo sapiens; test: Selectivity ratio of IC50 for human Nav1.6 to IC50 for human Nav1.5
[26] = target: Potassium voltage-gated channel subfamily A member 5 (Homo sapiens) (UniProt P22460); test: Inhibition of Kv1.5 (unknown origin) by voltage clamp method
[27] = tested on: iPSC-CM; test: Anti-arrythmic activity in human iPSC-derived cardiomyocytes assessed as AP amplitude at 100 nM in presence of 15 to 30 nM ATX-II by current clamp analysis; assay type: functional, cell-based
[28] = target: Voltage-dependent T-type calcium channel subunit alpha-1G (Homo sapiens) (UniProt O43497); test: Inhibition of Cav3.1 (unknown origin) by voltage clamp assay
Chain of Voltage-dependent T-type calcium channel subunit alpha-1G (Homo sapiens) (O43497 whole entry): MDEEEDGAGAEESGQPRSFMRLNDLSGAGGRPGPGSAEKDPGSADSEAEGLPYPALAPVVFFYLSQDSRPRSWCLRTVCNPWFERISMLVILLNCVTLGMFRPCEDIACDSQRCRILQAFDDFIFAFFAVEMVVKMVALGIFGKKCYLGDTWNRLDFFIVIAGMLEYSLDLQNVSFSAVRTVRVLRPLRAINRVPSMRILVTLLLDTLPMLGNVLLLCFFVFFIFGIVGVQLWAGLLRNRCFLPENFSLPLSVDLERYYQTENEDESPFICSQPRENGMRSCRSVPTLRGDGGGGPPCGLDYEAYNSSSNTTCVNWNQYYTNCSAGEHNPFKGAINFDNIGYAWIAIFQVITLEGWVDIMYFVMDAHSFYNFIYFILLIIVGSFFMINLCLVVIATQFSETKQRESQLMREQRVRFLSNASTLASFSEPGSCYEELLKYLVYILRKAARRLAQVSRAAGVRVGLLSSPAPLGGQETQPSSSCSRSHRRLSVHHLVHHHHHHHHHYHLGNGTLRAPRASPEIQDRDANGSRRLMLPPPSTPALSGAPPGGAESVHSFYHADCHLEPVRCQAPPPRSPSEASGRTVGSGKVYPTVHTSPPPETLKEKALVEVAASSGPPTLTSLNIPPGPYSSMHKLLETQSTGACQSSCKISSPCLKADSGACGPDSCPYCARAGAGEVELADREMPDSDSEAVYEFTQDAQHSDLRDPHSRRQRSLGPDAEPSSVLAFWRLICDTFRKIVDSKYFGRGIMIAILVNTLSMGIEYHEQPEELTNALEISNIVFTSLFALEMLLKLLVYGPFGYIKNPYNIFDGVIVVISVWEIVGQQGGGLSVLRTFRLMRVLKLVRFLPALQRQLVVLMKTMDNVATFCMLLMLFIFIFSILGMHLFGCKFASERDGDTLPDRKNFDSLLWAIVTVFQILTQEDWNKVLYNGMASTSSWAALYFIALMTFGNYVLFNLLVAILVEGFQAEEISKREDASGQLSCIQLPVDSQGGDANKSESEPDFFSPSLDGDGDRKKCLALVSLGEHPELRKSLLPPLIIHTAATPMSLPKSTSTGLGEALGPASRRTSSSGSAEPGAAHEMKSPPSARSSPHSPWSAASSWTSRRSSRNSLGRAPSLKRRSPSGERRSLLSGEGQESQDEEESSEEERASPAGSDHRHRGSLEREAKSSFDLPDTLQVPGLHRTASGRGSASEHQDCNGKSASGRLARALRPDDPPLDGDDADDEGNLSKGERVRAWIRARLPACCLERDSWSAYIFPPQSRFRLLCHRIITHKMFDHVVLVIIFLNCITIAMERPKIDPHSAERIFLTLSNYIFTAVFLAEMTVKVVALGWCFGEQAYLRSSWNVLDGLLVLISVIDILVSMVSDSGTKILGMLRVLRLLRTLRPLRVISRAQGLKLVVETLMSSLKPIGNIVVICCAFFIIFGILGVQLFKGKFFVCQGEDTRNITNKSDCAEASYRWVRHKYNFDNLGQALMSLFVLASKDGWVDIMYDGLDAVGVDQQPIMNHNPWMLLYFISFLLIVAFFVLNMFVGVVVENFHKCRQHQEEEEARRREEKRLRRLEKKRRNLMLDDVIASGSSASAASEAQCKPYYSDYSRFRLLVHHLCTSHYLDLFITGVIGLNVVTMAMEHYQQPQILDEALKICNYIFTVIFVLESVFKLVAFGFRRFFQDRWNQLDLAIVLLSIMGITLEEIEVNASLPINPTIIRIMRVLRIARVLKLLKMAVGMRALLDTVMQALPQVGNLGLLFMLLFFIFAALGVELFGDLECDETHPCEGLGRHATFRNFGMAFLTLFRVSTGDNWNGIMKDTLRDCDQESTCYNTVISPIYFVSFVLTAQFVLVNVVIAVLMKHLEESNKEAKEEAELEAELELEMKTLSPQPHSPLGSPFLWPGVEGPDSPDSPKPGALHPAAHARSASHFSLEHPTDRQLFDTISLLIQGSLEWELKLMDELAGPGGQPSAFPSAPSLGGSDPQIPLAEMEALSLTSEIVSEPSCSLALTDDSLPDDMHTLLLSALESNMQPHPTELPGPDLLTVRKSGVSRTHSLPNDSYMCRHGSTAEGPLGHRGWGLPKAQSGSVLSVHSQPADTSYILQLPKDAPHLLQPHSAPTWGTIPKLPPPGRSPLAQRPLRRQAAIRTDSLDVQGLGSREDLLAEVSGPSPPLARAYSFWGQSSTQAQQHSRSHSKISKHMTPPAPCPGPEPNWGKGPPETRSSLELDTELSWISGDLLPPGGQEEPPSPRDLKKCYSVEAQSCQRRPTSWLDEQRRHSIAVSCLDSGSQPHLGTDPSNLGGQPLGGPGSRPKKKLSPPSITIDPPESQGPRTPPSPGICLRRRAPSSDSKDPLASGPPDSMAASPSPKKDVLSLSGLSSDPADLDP

Chain of Sodium channel protein type 5 subunit alpha (Homo sapiens, UniProt Q14524) (Q14524 whole entry): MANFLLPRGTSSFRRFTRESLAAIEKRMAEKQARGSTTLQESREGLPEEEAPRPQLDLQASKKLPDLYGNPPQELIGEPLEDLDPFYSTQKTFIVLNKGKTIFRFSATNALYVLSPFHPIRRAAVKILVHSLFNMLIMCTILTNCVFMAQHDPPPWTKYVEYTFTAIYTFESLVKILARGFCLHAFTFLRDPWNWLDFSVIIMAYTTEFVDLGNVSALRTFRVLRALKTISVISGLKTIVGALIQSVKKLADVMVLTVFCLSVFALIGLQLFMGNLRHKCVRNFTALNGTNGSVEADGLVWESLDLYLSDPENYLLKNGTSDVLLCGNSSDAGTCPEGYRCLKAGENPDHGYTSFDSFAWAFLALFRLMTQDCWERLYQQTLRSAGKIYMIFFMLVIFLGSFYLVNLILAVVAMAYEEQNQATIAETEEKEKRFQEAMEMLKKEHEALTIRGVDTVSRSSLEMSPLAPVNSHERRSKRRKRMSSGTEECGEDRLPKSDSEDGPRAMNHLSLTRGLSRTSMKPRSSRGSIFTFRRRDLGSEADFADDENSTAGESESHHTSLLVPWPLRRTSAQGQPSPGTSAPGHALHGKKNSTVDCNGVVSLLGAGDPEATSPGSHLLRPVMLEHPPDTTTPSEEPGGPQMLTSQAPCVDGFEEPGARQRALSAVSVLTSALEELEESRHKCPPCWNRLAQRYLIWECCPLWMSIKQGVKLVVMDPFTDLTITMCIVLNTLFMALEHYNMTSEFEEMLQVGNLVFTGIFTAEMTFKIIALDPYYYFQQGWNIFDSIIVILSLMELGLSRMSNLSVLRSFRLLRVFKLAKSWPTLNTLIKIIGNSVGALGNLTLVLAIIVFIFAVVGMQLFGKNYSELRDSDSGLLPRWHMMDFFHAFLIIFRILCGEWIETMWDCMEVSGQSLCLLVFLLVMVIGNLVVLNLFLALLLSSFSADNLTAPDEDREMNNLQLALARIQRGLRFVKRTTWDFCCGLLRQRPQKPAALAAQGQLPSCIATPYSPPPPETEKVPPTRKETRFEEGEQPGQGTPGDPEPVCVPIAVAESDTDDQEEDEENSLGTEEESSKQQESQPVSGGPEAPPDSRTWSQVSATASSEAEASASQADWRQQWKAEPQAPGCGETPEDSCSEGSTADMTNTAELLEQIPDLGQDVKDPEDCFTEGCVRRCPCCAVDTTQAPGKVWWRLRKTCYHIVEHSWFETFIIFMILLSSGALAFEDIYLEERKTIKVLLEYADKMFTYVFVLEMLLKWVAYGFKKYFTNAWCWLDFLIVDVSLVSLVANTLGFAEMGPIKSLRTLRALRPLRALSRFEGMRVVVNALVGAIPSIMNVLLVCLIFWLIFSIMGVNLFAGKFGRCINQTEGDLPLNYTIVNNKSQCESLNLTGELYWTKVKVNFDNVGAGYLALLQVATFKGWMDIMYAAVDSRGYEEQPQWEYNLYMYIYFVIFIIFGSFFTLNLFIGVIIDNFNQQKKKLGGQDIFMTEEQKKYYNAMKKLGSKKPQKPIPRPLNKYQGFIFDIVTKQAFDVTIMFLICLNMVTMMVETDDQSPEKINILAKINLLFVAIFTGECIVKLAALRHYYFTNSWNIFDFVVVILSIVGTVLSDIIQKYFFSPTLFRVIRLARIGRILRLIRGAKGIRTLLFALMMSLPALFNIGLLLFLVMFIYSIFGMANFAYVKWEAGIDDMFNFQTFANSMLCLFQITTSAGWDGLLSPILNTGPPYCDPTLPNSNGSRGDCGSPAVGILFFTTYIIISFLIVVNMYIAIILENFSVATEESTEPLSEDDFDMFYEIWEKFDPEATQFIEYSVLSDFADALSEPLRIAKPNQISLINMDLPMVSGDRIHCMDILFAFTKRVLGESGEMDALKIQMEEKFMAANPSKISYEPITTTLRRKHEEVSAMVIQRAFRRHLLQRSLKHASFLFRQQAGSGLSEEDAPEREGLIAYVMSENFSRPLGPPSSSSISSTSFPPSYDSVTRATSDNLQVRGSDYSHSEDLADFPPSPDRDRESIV

| Compound | IC50 [1] | CLint scaled [2] | CLint scaled [3] | other results |
| --- | --- | --- | --- | --- |
| O=S(=O)(Nc1ncc(F)s1)c1cc(F)c(O[C@H]2CCN(CC(F)(F)F)C[C@@H]2c2ccccc2)cc1F (racemic) | 4650 nM | – | – | – |
| O=S(=O)(Nc1nncs1)c1cc(F)c(O[C@H]2CCN(CC(F)(F)F)C[C@@H]2c2ccccc2)cc1F (racemic) | 25100 nM | – | – | – |
| O=S(=O)(Nc1cccc(F)n1)c1cnc(O[C@H]2CCN(CC(F)(F)F)C[C@@H]2c2ccc(F)c(F)c2)c(F)c1 (racemic) | 1550 nM | 63 mL/min/kg | 8.4 mL/min/kg | – |
| O=S(=O)(Nc1ccccn1)c1cc(F)c(O[C@H]2CCN(CC(F)(F)F)C[C@@H]2c2ccccc2)cc1F (racemic) | 4320 nM | – | – | – |
| O=S(=O)(Nc1cccc(F)n1)c1cc(F)c(O[C@H]2CCN(CC(F)(F)F)C[C@@H]2c2cccc(F)c2)cc1F (racemic) | 460 nM | 53 mL/min/kg | 13 mL/min/kg | – |
| O=S(=O)(Nc1cccc(F)n1)c1cc(F)c(O[C@H]2CCN(CC(F)(F)F)C[C@@H]2c2ccc(F)c(F)c2)c(F)c1 (racemic) | 65 nM | 65 mL/min/kg | 15 mL/min/kg | – |
| O=S(=O)(Nc1cccc(C(F)(F)F)n1)c1cc(F)c(O[C@H]2CCN(CC(F)(F)F)C[C@@H]2c2ccccc2)cc1F (racemic) | 6330 nM | – | – | – |
| O=S(=O)(Nc1ccc(F)cn1)c1cc(F)c(O[C@H]2CCN(CC(F)(F)F)C[C@@H]2c2ccccc2)cc1F (racemic) | 13200 nM | – | – | – |
| O=S(=O)(Nc1cccc(F)n1)c1cc(F)c(O[C@H]2CCN(CC(F)(F)F)C[C@@H]2c2ccccc2)cc1F (racemic) | 700 nM | 70 mL/min/kg | 16 mL/min/kg | IC50 [4]: 570 nM; IC50 [5]: 820 nM; IC50 [6]: 810 nM; IC50 [7]: 1290 nM; IC50 [8]: 410 nM; IC50 [9]: 1210 nM |
| O=S(=O)(Nc1cccc(F)n1)c1cc(F)c(O[C@H]2CCN(CC(F)(F)F)C[C@@H]2c2ccc(F)cc2F)cc1F (racemic) | 470 nM | 49 mL/min/kg | 13 mL/min/kg | – |
| N#Cc1cccc([C@H]2CN(CC(F)(F)F)CC[C@@H]2Oc2cc(F)c(S(=O)(=O)Nc3cccc(F)n3)cc2F)c1 (racemic) | 4580 nM | – | – | – |
| O=S(=O)(Nc1cccnn1)c1cc(F)c(O[C@H]2CCN(CC(F)(F)F)C[C@@H]2c2ccccc2)cc1F (racemic) | 25500 nM | – | – | – |
| O=S(=O)(Nc1cccc(F)n1)c1cc(F)c(O[C@H]2CCN(CC(F)(F)F)C[C@@H]2c2ccc(F)c(F)c2)cc1F (racemic) | 260 nM | 49 mL/min/kg | 7.5 mL/min/kg | – |
| O=S(=O)(Nc1ncccc1F)c1cc(F)c(O[C@H]2CCN(CC(F)(F)F)C[C@@H]2c2ccccc2)cc1F (racemic) | 5040 nM | – | – | – |
| O=S(=O)(Nc1cccc(F)n1)c1cc(F)c(O[C@H]2CCN(CC(F)(F)F)C[C@@H]2c2ccc(F)c(F)c2)c(F)c1F (racemic) | 31 nM | 65 mL/min/kg | 14 mL/min/kg | – |
| CS(=O)(=O)c1cccc([C@H]2CN(CC(F)(F)F)CC[C@@H]2Oc2cc(F)c(S(=O)(=O)Nc3cccc(F)n3)cc2F)c1 (racemic) | > 30000 nM | – | – | – |
| O=S(=O)(Nc1cccc(F)n1)c1cc(F)c(O[C@H]2CCN(CC(F)(F)F)C[C@@H]2c2ccc(F)cc2)cc1F (racemic) | 610 nM | 62 mL/min/kg | 11 mL/min/kg | – |
| O=S(=O)(Nc1ncns1)c1cc(F)c(O[C@H]2CCN(CC(F)(F)F)C[C@@H]2c2ccccc2)cc1F (racemic) | 7830 nM | – | – | – |
| O=S(=O)(Nc1cscn1)c1cc(F)c(O[C@H]2CCN(CC(F)(F)F)C[C@@H]2c2ccccc2)cc1F (racemic) | 1180 nM | – | – | IC50 [4]: 1170 nM |
| O=S(=O)(Nc1cccc(Cl)n1)c1cc(F)c(O[C@H]2CCN(CC(F)(F)F)C[C@@H]2c2ccccc2)cc1F (racemic) | 1100 nM | – | – | – |
| O=S(=O)(Nc1cc(F)ccn1)c1cc(F)c(O[C@H]2CCN(CC(F)(F)F)C[C@@H]2c2ccccc2)cc1F (racemic) | 1290 nM | – | – | – |
| O=S(=O)(Nc1cscn1)c1cc(F)c(O[C@H]2CCN(CC(F)(F)F)C[C@@H]2c2ccc(F)c(F)c2)cc1F (racemic) | 750 nM | 70 mL/min/kg | 14 mL/min/kg | – |
| O=S(=O)(Nc1ccncn1)c1cc(F)c(O[C@H]2CCN(CC(F)(F)F)C[C@@H]2c2ccccc2)cc1F (racemic) | > 30000 nM | – | – | – |
| O=S(=O)(Nc1cccc(F)n1)c1cc(F)c(O[C@H]2CCN(CC(F)(F)F)C[C@@H]2c2ccccc2F)cc1F (racemic) | 680 nM | 71 mL/min/kg | 17 mL/min/kg | – |
| O=S(=O)(Nc1ncccn1)c1cc(F)c(O[C@H]2CCN(CC(F)(F)F)C[C@@H]2c2ccccc2)cc1F (racemic) | 7140 nM | – | – | – |
| O=S(=O)(Nc1cccc(F)n1)c1cc(F)c(OC2CCN(CC(F)(F)F)CC2c2ccc(F)c(F)c2)cc1F (single isomer, unassigned; (+)) | 430 nM | – | – | – |
| O=S(=O)(Nc1cccc(F)n1)c1cc(F)c(OC2CCN(CC(F)(F)F)CC2c2ccc(F)c(F)c2)cc1F (single isomer, unassigned; (-)) | – | – | – | Ratio IC50 [10]: > 40 |
| O=S(=O)(Nc1cccc(F)n1)c1cc(F)c(O[C@H]2CCN(CC(F)(F)F)C[C@@H]2c2ccc(F)c(F)c2)c(F)c1 (stereo in doubt; (+)-6) | 170 nM | – | – | – |
| O=S(=O)(Nc1cccc(F)n1)c1cc(F)c(O[C@H]2CCN(CC(F)(F)F)C[C@@H]2c2ccc(F)c(F)c2)c(F)c1 (stereo in doubt; (-)-6) | – | – | – | Ratio IC50 [11]: 7; Ratio IC50 [12]: 1.1; inhibition [13]: inactive; inhibition [14]: inactive; inhibition [15]: inactive; Ratio IC50 [16]: 16; inhibition [17]: inactive; inhibition [18]: inactive; inhibition [19]: inactive; Activity [20]: inactive; inhibition [21]: inactive; inhibition [22]: inactive; inhibition [23]: inactive; inhibition [24]: inactive; Ratio IC50 [25]: 6; inhibition [26]: inactive; Activity [27]: inactive; inhibition [28]: inactive |
